According to ChEMBL document CHEMBL1130730, “Immunomodulatory activity of thunberginol A and related compounds isolated from Hydrangeae Dulcis Folium on splenocyte proliferation activated by mitogens” (Bioorg Med Chem Lett, 1998):
Calls of active or inactive are those of the source. The calls are words filed in the database; no cut-off is given here.

Tests used:
Mus musculus [1] = species: Mus musculus; assay: Tested for inhibitory activity against B lymphocyte proliferation induced by LPS at 10e-5 M; significantly potentiated the proliferation; format: functional
Mus musculus [2] = species: Mus musculus; assay: Tested for inhibitory activity against T lymphocyte proliferation induced by PHA; showed no suppressive effect; format: functional
Mus musculus [3] = species: Mus musculus; assay: Tested for inhibitory activity against T lymphocyte proliferation induced by PHA at 10e-7 M; showed potent suppressive effect; format: functional
Mus musculus [4] = species: Mus musculus; assay: Tested for inhibitory activity against T lymphocyte proliferation induced by Con A at 10e-7 M; showed potent suppressive effect; format: functional
Mus musculus [5] = species: Mus musculus; assay: Tested for inhibitory activity against B lymphocyte proliferation induced by LPS at 10e-7 M; suppressed the proliferation; format: functional
Mus musculus [6] = assay: Tested for inhibitory activity against hind paw edema sensitized with sheep red blood cells (SRBC) in both sensitizing and inflammatory phases after oral administration; showed reduction
Rattus norvegicus [7] = assay: Tested for in vivo inhibitory activity against asthmatic bronchoconstriction in rats induced by antigen-antibody reaction; showed inhibition; format: functional, organism-based
Mus musculus [8] = assay: Tested for inhibitory activity against contact ear dermatitis in mice induced by dinitrofluorobenzene by consecutive oral administration in the primary sensitizing phase; showed inhibition; format: functional, organism-based
Rattus norvegicus [9] = assay: Tested for in vivo inhibitory activity against passive cutaneous anaphylaxis (PCA) reaction in rats; showed inhibition; format: functional, organism-based
Rattus norvegicus [10] = assay: Tested for […] inhibitory activity against type 1 allergic reactions after oral administration; showed inhibition; format: functional, organism-based
Mus musculus [11] = species: Mus musculus; assay: Tested for inhibitory activity against T lymphocyte proliferation induced by Con A at 10e-6 to 10e-5 M; significantly suppressed the proliferation; format: functional
Mus musculus [12] = species: Mus musculus; assay: Tested for inhibitory activity against B lymphocyte proliferation induced by LPS at 10e-5 M; significantly suppressed the proliferation; format: functional
Mus musculus [13] = species: Mus musculus; assay: Tested for inhibitory activity against T lymphocyte proliferation induced by Con A at 10e-5 M; slightly suppressed the proliferation; format: functional

O=c1oc(-c2ccc(O)c(O)c2)cc2cc(O)cc(O)c12
Activity (Mus musculus [1]): no suppressive effect
Activity (Mus musculus [2]): no suppressive effect

O=C1OC(c2ccc(O)cc2)Cc2cccc(O)c21 (stereo not drawn)
Activity (Mus musculus [1]): no suppressive effect
Activity (Mus musculus [2]): no suppressive effect

C[C@]12CCC(=O)C=C1CCC1[C@@H]2[C@@H](O)C[C@@]2(C)[C@H]1CC[C@]2(O)C(=O)CO (single isomer, unassigned)
Activity (Mus musculus [3]): Active
Activity (Mus musculus [4]): Active
Activity (Mus musculus [5]): Active

O=c1oc(-c2ccc(O)c(O)c2)cc2cccc(O)c12
Activity (Mus musculus [6]): inhibition
Activity (Rattus norvegicus [7]): inhibition
Activity (Mus musculus [8]): inhibition
Activity (Rattus norvegicus [9]): inhibition
Activity (Rattus norvegicus [10]): inhibition
Activity (Mus musculus [11]): inhibition
Activity (Mus musculus [12]): inhibition

O=c1oc(-c2ccc(O)cc2)cc2cccc(O)c12
Activity (Mus musculus [1]): no suppressive effect
Activity (Mus musculus [2]): no suppressive effect

COc1ccc([C@H]2Cc3cccc(O)c3C(=O)O2)cc1O
Activity (Mus musculus [1]): significantly potentiated the proliferation
Activity (Mus musculus [13]): significantly potentiated the proliferation

O=C1OC(c2ccc(O)c(O)c2)Cc2cc(O)cc(O)c21 (stereo not drawn)
Activity (Mus musculus [1]): no suppressive effect
Activity (Mus musculus [2]): no suppressive effect
Activity (Mus musculus [13]): no suppressive effect

O=C(O)c1c(O)cccc1/C=C/c1ccc(O)c(O)c1
Activity (Mus musculus [1]): no suppressive effect
Activity (Mus musculus [2]): no suppressive effect

O=C1OC(c2ccc(O)cc2)Cc2cc(O)cc(O)c21 (stereo not drawn)
Activity (Mus musculus [1]): no suppressive effect
Activity (Mus musculus [2]): no suppressive effect
Activity (Mus musculus [13]): no suppressive effect

O=C1O/C(=C\c2ccc(O)c(O)c2)c2cccc(O)c21
Activity (Mus musculus [1]): no suppressive effect
Activity (Mus musculus [2]): no suppressive effect

O=C1OC(c2ccc(O)c(O)c2)Cc2cccc(O)c21 (stereo not drawn)
Activity (Mus musculus [1]): no suppressive effect
Activity (Mus musculus [2]): no suppressive effect
Activity (Mus musculus [13]): no suppressive effect

COc1ccc([C@H]2Cc3cc(O)cc(O)c3C(=O)O2)cc1O
Activity (Mus musculus [1]): significantly potentiated the proliferation
Activity (Mus musculus [13]): significantly potentiated the proliferation
